Test results published in PMC12079500, “An Intracellular Peptide Library Screening Platform Identifies Irreversible Covalent Transcription Factor Inhibitors” (Advanced Science, 2025).
*1 amine or outer side, *2 acyl side, *3 side chain or, on linkers, in order; H or OH if unused. Where a SMILES comes first, the peptide text is derived from it. Bridges are numbered along the chain shown (N, C = ends). [ ]: non-standard residue; d: D form. The star is where a group is joined. Met(S-mXyl) = C[S+](CC[C@H](N[*:1])C(=O)[*:2])Cc1cccc(C[*:3])c1; 5FAM = O=C1OC2(c3ccc(O)cc3Oc3cc(O)ccc32)c2ccc(C(=O)*)cc21

Tests used:
cJun/FAM-TRE DNA = target: T1, cJun/FAM-TRE DNA (Homo sapiens, UniProt P05412); assay: Fluorescence polarisation cJun/FAM-TRE DNA antagonism time course; assay type: biochemical; conditions: 10 nM FAM-TRE, 625 nM cJun, peptide 10000-20 nM, 5 mM TCEP, pH 7.4; quadruplicate
T1 construct: LC-MS analysis of the cJun bZIP domain; made in house
T1 sequence (P05412 252-315 limits assumed): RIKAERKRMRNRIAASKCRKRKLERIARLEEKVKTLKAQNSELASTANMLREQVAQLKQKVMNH

CREB1 = CREB1 (Homo sapiens, UniProt P16220); assay: Selectivity: incubation with CREB1 monitored by SDS-PAGE; assay type: biochemical; conditions: HW33 40 µM + CREB1 20 µM, 24 h
Chain of CREB1 (P16220 whole entry, species assumed, the tested form may be a part): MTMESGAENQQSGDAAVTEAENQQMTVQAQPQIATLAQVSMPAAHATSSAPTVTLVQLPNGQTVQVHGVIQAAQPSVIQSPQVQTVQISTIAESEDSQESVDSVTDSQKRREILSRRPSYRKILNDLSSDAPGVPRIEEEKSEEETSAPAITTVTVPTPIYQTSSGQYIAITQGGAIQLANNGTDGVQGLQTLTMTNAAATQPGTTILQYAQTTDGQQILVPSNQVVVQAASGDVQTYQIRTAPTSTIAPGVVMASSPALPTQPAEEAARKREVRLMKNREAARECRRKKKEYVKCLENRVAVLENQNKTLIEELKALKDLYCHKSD
Protocol: The selectivity of this reaction, which is highly proximity‐driven, was first investigated by incubating HW33 (40 µM) with CREB1 (20 µM), a closely related bZIP‐containing TF that contains a Cys residue at the same position within the bZIP domain as cJun. Moreover, CREB1 contains two additional Cys residues located within the LZ domain that are not found within cJun. […] To further investigate HW33 selectivity for cJun, a reaction was next undertaken in SK‐MEL‐28 human melanoma cell lysate using FAM‐HW33, in which the N‐terminal acetyl group of HW33 was replaced with carboxyfluorescein to allow for peptide detection (Figure S17, Supporting Information). Samples containing cJun bZIP (20 µM) and FAM‐HW33 (20 µM) were incubated with or without lysate (10 µg) at 37 °C for 4 h before analysis by SDS‐PAGE (Figure 4E). […]
Covalent conjugation assays: Initial tests were performed by incubation of HW32 and HW33 (40 µM) with cJun bZIP (20 µM) in 50 mM potassium phosphate butter, 150 mM NaCl, pH 7.4 at 37°C, shaking at 450 rpm. […] The samples were analysed by LC-MS on a Luna C18(2) column (5-μm particle size, 100 Å pore size, 150 × 4.6 mm; Phenomenex). The % occupancy was determined by the ratio of conjugated cJun over total cJun as determined by the area under the peaks in the chromatogram measured at a 215 nm wavelength, with their identity confirmed by ESI-MS. […]

cJun/TRE DNA = target: T2, cJun/TRE DNA (Homo sapiens, UniProt P05412); assay: CD cJun/TRE DNA antagonism assay (TRE DNA signal at 281 nm); assay type: biochemical
T2 construct: LC-MS analysis of the cJun bZIP domain; made in house
T2 sequence (P05412 252-315 limits assumed): as the sequence (P05412 252-315 limits assumed) above
Text: CD antagonism experiments were next carried out, as previously described,^[ [13], [18] ^] whereby the structure of a TRE DNA duplex was monitored by following a peak at 281 nm, which shifts upon binding to cJun. The introduction of antagonist to the sample causes the peak to shift back to its unbound signal in a dose‐dependent manner as the cJun is sequestered, leaving unbound DNA in its original structure (Figure S9, Supporting Information). As there is no protein absorbance in this region of the CD spectrum, this measures DNA structure only and produces a simple readout of the proportion of free/cJun‐bound DNA at different antagonist concentrations. By fitting these plots to a Hill equation (OriginPro), IC50 values for HW1, HW29, and HW31 were determined in both reducing and oxidizing conditions (Table S1, Supporting Information; Figure 3C).
Circular dichroism (CD): An Applied Photophysics Chirascan was used for CD measurements, with a 200 µL sample in a 1 mm path length CD cell. Protein/DNA samples were suspended in 20 mM potassium phosphate,150 mM potassium fluoride at pH 7.4 with or without 5 mM TCEP. cJun was added to TRE DNA (5’-[…], Merck) before addition of antagonist peptide and these samples were equilibrated for 30 minutes before measurement.^[13] For full spectra, three scans between 190 and 260 nm (265-320 nm for DNA binding experiments) were collected with a bandwidth of 1 nm and data sampled at a rate of 0.5 s^-1. These scans were averaged and converted to molar residue ellipticities (MRE). Thermal denaturation experiments were performed by measuring the ellipticity at 222 nm over a 1 to 95°C gradient at 1°C increments. Post-melt scans at 20°C confirmed the transitions were reversible as they overlaid within 5% of the pre-melt scan. The resulting thermal denaturation curves were converted to MRE and fitted to a two-state model, derived via modification of the Gibbs–Helmholtz equation to determine the melting temperature (Tm) ^[26].

SK-MEL-28 cells [1] = assay: Cell imaging of FAM-peptide uptake; assay type: cell-based, human; conditions: SK-MEL-28, 10 and 30 µM, 6 h, 37 °C, fixed, DAPI counterstain, fluorescence microscopy
Protocol: Cell imaging: Cells were seeded at 40,000 cells per well in a […] and incubated for 24 hours before treatment with vehicle (1% DMSO in water) or peptide for 6 hours. The media was removed and the cells were washed 3x with PBS. 1 mL of paraformaldehyde (80 mg/mL in PBS) was added and incubated at room temperature for 10 minutes. The paraformaldehyde was removed and fixed cells were washed with 3x PBS. 500 µL of DAPI (1 µg/mL) was then added and incubated at room temperature for 5 minutes following by a 3x PBS wash. Cells were imaged using an Evos FL digital inverted fluorescence microscope using brightfield and both GFP (for the FAM label) and DAPI fluorescence filters.

SK-MEL-28 cells [2] = assay: MTT cell viability assay; assay type: cell-based, human; conditions: SK-MEL-28, 30 µM
Protocol: Cell viability assay: Cells were seeded at 15,000 cells per well in a 96-well plate and incubated for 24 hours before treatment with vehicle (1% DMSO in water) or peptide for 6 or 24 hours. The media was removed and the cells were washed twice with PBS before 50 µL of MTT (1 mg/mL in PBS, Merck) was added and incubated at 37°C for 30 minutes. The MTT solution was removed and 100 µL isopropanol was added to each well and rocked at room temperature for 5 minutes. Absorbance at 595 nm was measured using a Clariostar plate reader. Unless otherwise stated, all data are reported as an average of three independent biological experiments, with each data point determined in triplicate (i.e. 9 measurements) and reported as the mean with errors given as one standard deviation. For data with one independent measurement, each data point was determined in triplicate i.e. 3 measurements and reported as the mean with errors given as one standard deviation.

cJun = cJun (Homo sapiens, UniProt P05412); assay: Western blot of cJun levels in cell lysate after peptide addition; assay type: biochemical; parameters: endogenous in cells; host or cells: SK-MEL-28; conditions: SK-MEL-28 cell lysate with protease inhibitor cocktail, 30 µM peptide, 37 °C, 5 mM TCEP, pH 7.4, western blot over time
Chain of cJun (P05412 whole entry): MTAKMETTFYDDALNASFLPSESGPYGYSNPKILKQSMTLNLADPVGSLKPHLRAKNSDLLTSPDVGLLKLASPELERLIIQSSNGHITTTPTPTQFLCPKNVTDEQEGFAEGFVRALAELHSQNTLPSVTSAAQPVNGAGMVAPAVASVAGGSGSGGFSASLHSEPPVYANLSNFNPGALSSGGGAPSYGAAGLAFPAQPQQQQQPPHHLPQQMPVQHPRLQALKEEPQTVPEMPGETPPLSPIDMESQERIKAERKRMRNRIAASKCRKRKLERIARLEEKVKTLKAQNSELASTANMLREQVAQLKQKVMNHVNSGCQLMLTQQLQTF
Protocol: Figure S25 – cJun protein levels in SK-MEL-28 cell lysate (with the addition of Roche cOmplete protease inhibitor cocktail) upon addition of 30 µM FAM-HW33-NLSTAT, determined over time by western blot. Cells were lysed by sonication in 20 mM KP, 150 mM NaCl, 5 mM TCEP, pH 7.4 and incubated at 37°C after peptide addition. Uncropped blots are also shown.

Molecule | Time dependence of FP antagonism compared with HW1 (cJun/FAM-TRE DNA) | Conjugation with CREB1 (CREB1) | Fold increase in antagonism over the 4 h time course (cJun/TRE DNA; CD antagonism time course) [fold] | Time dependence of CD antagonism compared with HW1 (cJun/TRE DNA; IC50 plotted over time) | Cellular uptake (FAM fluorescence within cells) (SK-MEL-28 cells [1]) | Fold larger reduction in cell viability relative to HW1 (SK-MEL-28 cells [2]) [x] | cJun depletion in cell lysate (cJun)
CC[C@H](C)[C@H](NC(=O)[C@H](CCC(=O)O)NC(=O)[C@H](CCCCN)NC(=O)[C@H](CCCNC(=N)N)NC(=O)[C@H](CC(C)C)NC(=O)[C@H](C)NC(=O)[C@H](Cc1ccc(O)cc1)NC(=O)[C@H](CC(N)=O)NC(=O)[C@H](CCCNC(=N)N)NC(=O)[C@H](CCC(=O)O)NC(=O)[C@H](CCC(=O)O)NC(=O)[C@H](CC(C)C)NC(=O)[C@H](CCC(N)=O)NC(=O)[C@H](CCC(=O)O)NC(=O)[C@@H](NC(=O)[C@H](CCC(=O)O)NC(=O)[C@H](CCC(=O)O)NC(=O)[C@H](CCC(=O)O)NC(=O)[C@H](CC(C)C)NC(=O)[C@@H](NC(=O)[C@H](CC(=O)O)NC(=O)[C@H](CCC(=O)O)NC(=O)[C@H](CCC(=O)O)NC(=O)[C@@H](NC(=O)[C@@H]1CSCc2cccc(c2)C[S+](C)CC[C@H](NC(=O)[C@H](CCC(=O)O)NC(C)=O)C(=O)N[C@@H](CCC(=O)O)C(=O)N[C@@H](CCC(=O)O)C(=O)N[C@@H](CC(C)C)C(=O)N1)C(C)C)C(C)C)[C@@H](C)CC)C(=O)N[C@H]1CCCCNC(=O)C[C@@H](C(=O)N[C@@H](CCC(N)=O)C(N)=O)NC(=O)[C@H](CCC(N)=O)NC(=O)[C@H](CC(C)C)NC(=O)[C@H](CC(=O)O)NC1=O (stereo partly shown) [HW33] (Ac-E[Met(S-mXyl)]EELCVEEDVLEEEIEQLEERNYALRKEIKDLQDQ-NH2; thioether 2-6; lactam 31-35) | improved antagonism over HW1 after 240 minutes | no conjugation observed | 5 | improved antagonism over HW1 after 60 min |  |  | 
5FAM-E[Met(S-mXyl)]EELCVEEDVLEEEIEQLEERNYALRKEIKDLQDQPKKKRKVYGRKKRRQRRR-NH2 (thioether 2-6; lactam 31-35) [FAM-HW33-NLSTAT] |  |  |  |  | FAM fluorescence was observed within the cells | 2.2 | cJun depletion effect was also observed in cell lysate
